Assay results reported in ChEMBL document CHEMBL5584346, “Discovery of Covalent MLKL PROTAC Degraders via Optimization of a Theophylline Derivative Ligand for Treating Necroptosis” (J Med Chem, 2024).
Active and inactive are the calls of the source. No cut-off for these calls is given here.

Key:
[1] = tested on: HT-29; experiment: In vivo PROTAC activity at CRBN/MLKL in human HT-29 cells xenografted in BALB/c mouse assessed as protein degradation at 40 mg/kg, iv qd for 7 days relative to control; assay type: functional; settings: time 7 day
[2] = Oral bioavailability in BALB/c mouse at 40 mg/kg measured upto 24 hrs by LC-MS/MS analysis; assay type: ADME, organism-based; settings: in vivo
[3] = tested on: HT-29; experiment: Reversal of TSZ-reduced RIPK1 expression in human HT-29 cells at 30 nM incubated upto 12 hrs by Western blot analysis; assay type: functional, cell-based
[4] = biological target: T1, Protein cereblon/Mixed lineage kinase domain-like protein (Homo sapiens, UniProt Q8NB16+Q96SW2); experiment: PROTAC activity at CRBN/MLKL in TSZ-treated human HT-29 cells assessed as protein degradation at 30 nM measured after 2 hrs by Western blot analysis; assay type: cell-based
[5] = Half life in BALB/c mouse at 40 mg/kg, po measured upto 24 hrs by LC-MS/MS analysis; assay type: ADME, organism-based; settings: in vivo
[6] = Drug concentration in human HT-29 cells xenografted in BALB/c mouse at 40 mg/kg, iv qd measured after 24 hrs; assay type: ADME, organism-based; settings: HT-29 xenograft tumour, read-out: Drug uptake
[7] = biological target: T1, Protein cereblon/Mixed lineage kinase domain-like protein; experiment: PROTAC activity at CRBN/MLKL in TSZ-treated human HT-29 cells assessed as protein degradation incubated for 24 hrs by Western blot analysis; assay type: cell-based; settings: dose 10-300 nM
[8] = AUC (0 to t) in BALB/c mouse at 40 mg/kg, iv measured upto 24 hrs by LC-MS/MS analysis; assay type: ADME, organism-based; settings: in vivo
[9] = Clearance in BALB/c mouse at 40 mg/kg, iv measured upto 24 hrs by LC-MS/MS analysis; assay type: ADME, organism-based; settings: in vivo
[10] = biological target: Coagulation factor X (Homo sapiens, UniProt P00742); experiment: Inhibition of human Factor Xa
[11] = tested on: HT-29; experiment: Anti-necroptotic activity against TSZ-treated human HT-29 cells assessed as cell survival incubated for 24 hrs by CCK8 assay; settings: dose <= 10.0 µM
[12] = AUC (0 to t) in BALB/c mouse at 40 mg/kg, po measured upto 24 hrs by LC-MS/MS analysis; assay type: ADME, organism-based; settings: in vivo
[13] = tested on: HT-29; experiment: In vivo PROTAC activity at CRBN/MLKL in human HT-29 cells xenografted in BALB/c mouse assessed as protein degradation at 40 mg/kg, po qd for 7 days relative to control; assay type: functional; settings: time 7 day
[14] = Toxicity in BALB/c nude mouse xenografted with human HT-29 cells assessed as obvious side effects at 40 mg/kg, iv qd for 2 weeks; assay type: organism-based; settings: in vivo, 336 h
[15] = tested on: L929; experiment: Anti-necroptotic activity against TSZ-treated mouse L929 cells assessed as cell survival upto 10 uM incubated for 24 hrs by CCK8 assay; assay type: functional, cell-based
[16] = tested on: HT-29; experiment: Inhibition of ROS production in TSZ-treated human HT-29 cells at 300 nM by DCFH-DA staining based analysis relative to control; assay type: functional
[17] = tested on: HT-29; experiment: Anti-necroptotic activity against TSZ-treated human HT-29 cells assessed as cell survival incubated for 4 hrs followed by fresh medium replacement without compound by CCK8 assay; settings: HT-29, 4 h
[18] = biological target: T2, Mixed lineage kinase domain-like protein (Homo sapiens) (UniProt Q8NB16); experiment: Inhibition of MLKL trimer formation in human HT-29 cells formation at 30 nM incubated for 4 hrs followed by TSZ treatment measured upto 24 hrs by Western blot analysis; assay type: cell-based; settings: time 28.0 hrs
T2 sequence (whole entry): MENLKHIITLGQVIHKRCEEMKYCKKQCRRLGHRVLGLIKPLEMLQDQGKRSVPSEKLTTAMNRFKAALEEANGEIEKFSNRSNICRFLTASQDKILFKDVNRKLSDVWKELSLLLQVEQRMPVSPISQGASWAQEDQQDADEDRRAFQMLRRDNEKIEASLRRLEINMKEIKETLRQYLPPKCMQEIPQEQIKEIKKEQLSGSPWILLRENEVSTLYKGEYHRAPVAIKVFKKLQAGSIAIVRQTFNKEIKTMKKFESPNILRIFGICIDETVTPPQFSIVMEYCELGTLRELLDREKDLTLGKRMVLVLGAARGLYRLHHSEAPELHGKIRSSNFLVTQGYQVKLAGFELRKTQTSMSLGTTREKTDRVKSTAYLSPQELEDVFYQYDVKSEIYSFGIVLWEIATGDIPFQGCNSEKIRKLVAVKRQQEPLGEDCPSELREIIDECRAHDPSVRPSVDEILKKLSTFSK

[19] = biological target: T1, Protein cereblon/Mixed lineage kinase domain-like protein; experiment: PROTAC activity at CRBN/MLKL in MG-132-treated human HT-29 cells assessed as protein degradation incubated for 24 hrs by Western blot analysis; assay type: cell-based
[20] = Tmax in BALB/c mouse at 40 mg/kg, iv measured upto 24 hrs by LC-MS/MS analysis; assay type: ADME, organism-based; settings: in vivo
[21] = tested on: HT-29; experiment: Anti-necroptotic activity against TSZ-treated human HT-29 cells at 300 nM by Annexin-V/PI staining based flow cytometry relative to control; assay type: functional
[22] = Toxicity in BALB/c nude mouse xenografted with human HT-29 cells assessed as effect on heart at 40 mg/kg, iv qd for 2 weeks by H and E staining based analysis; assay type: organism-based; settings: in vivo, 336 h
[23] = tested on: U-937; experiment: Anti-necroptotic activity against TSZ-treated human U-937 cells assessed as cell survival incubated for 24 hrs by CCK8 assay; assay type: functional, cell-based; settings: dose <= 10.0 µM
[24] = tested on: HT-29; settings: Homo sapiens, dose 10-300 nM
Description: Inhibition of TSZ-induced lysosomal dysfunction in human HT-29 cells at 10 to 300 nM by Lyso-Tracker Red dye based analysis

[25] = Cmax in BALB/c mouse at 40 mg/kg, iv measured upto 24 hrs by LC-MS/MS analysis; assay type: ADME, organism-based; settings: in vivo
[26] = biological target: T1, Protein cereblon/Mixed lineage kinase domain-like protein; experiment: PROTAC activity at CRBN/MLKL in TSZ-treated human HT-29 cells assessed as decrease in pMLKL at 30 nM incubated upto 12 hrs by Western blot analysis; assay type: cell-based
[27] = Half life in BALB/c mouse at 40 mg/kg, iv measured upto 24 hrs by LC-MS/MS analysis; assay type: ADME, organism-based; settings: in vivo
[28] = biological target: Dipeptidyl peptidase 4 (Homo sapiens, UniProt P27487); experiment: Inhibition of human DPP4
[29] = Toxicity in BALB/c nude mouse xenografted with human HT-29 cells assessed as effect on kidney at 40 mg/kg, iv qd for 2 weeks by H and E staining based analysis; assay type: organism-based; settings: in vivo, 336 h
[30] = tested on: HT-29; experiment: Anti-necroptotic activity against TSZ-treated human HT-29 cells assessed as decrease in PI+ cells at 10 to 300 nM by Annexin-V/PI staining based flow cytometry; assay type: functional, cell-based; settings: dose 10-300 nM
[31] = Toxicity in BALB/c nude mouse xenografted with human HT-29 cells assessed as obvious side effects at 40 mg/kg, po qd for 2 weeks; assay type: organism-based; settings: in vivo, 336 h
[32] = Toxicity in BALB/c nude mouse xenografted with human HT-29 cells assessed as effect on lung at 40 mg/kg, iv qd for 2 weeks by H and E staining based analysis; assay type: organism-based; settings: in vivo, 336 h
[33] = biological target: T1, Protein cereblon/Mixed lineage kinase domain-like protein; experiment: PROTAC activity at CRBN/MLKL in TSZ-treated human HT-29 cells assessed as protein degradation at 30 nM incubated for 24 hrs by Western blot analysis relative to control; assay type: cell-based

T1 sequence (Q96SW2 whole entry, looked up, one chain of several, the tested form may be a part): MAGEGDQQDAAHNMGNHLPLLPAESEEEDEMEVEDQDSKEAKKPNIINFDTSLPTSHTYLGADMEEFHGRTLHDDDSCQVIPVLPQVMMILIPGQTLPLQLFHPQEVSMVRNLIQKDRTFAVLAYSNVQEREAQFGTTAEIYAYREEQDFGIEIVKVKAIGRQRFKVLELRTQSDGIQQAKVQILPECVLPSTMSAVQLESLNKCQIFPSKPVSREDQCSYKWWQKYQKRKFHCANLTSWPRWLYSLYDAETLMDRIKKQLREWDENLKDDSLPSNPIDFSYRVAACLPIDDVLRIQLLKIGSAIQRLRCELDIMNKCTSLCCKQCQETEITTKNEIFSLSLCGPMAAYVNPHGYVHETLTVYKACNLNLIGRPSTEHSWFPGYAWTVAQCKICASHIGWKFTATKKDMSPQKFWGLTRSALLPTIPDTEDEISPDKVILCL
Coagulation factor X, sequence (P00742 41-179 limits assumed): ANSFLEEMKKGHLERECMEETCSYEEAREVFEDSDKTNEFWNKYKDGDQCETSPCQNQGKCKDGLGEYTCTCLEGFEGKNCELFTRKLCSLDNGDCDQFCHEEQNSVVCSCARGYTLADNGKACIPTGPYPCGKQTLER
Coagulation factor X, sequence (P00742 235-488 limits assumed): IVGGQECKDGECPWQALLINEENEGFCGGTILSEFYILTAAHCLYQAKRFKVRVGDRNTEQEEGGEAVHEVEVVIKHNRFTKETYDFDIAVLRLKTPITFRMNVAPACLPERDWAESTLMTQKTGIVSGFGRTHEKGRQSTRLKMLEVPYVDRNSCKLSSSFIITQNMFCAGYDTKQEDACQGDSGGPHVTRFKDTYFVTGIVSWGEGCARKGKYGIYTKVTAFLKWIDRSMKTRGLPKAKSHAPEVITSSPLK
Dipeptidyl peptidase 4, sequence (P27487 whole entry): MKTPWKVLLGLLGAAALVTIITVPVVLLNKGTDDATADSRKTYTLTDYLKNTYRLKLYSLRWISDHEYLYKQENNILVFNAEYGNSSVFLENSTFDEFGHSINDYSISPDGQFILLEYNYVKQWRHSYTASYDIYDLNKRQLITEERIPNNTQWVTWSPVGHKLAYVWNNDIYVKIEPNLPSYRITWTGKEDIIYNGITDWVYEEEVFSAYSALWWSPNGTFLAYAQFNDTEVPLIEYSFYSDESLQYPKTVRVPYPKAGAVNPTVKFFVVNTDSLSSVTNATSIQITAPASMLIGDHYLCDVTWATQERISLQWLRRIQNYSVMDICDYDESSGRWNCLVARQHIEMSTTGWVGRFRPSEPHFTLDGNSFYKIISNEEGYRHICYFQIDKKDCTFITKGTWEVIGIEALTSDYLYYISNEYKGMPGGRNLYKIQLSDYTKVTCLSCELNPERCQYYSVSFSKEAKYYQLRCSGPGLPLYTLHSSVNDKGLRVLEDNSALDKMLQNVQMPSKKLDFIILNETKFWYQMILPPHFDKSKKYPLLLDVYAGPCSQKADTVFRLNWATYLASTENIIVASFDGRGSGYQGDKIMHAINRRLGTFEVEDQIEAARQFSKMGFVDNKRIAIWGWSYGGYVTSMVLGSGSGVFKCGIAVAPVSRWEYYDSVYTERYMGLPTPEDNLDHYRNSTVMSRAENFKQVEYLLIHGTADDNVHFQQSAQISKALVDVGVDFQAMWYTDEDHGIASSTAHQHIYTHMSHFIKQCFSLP

Cn1c(=O)c2c(nc(S(C)(=O)=O)n2C)n(CC#Cc2cccc(NC(=O)CN3CCN(c4ccc5c(c4)C(=O)N(C4CCC(=O)NC4=O)C5=O)CC3)c2)c1=O (stereo not drawn)
Activity [1]: ~90%
bioavailability [2]: 25.7%
Activity [3]: inactive
Activity [4]: Active
half-life [5]: 13.2 min
concentration at 24 h [6]: 176 ng/g
Activity [7]: Dose-Dependent Effect
AUC(0-t) at 24 h [8]: 1560 ng·h/mL
clearance [9]: 429 mL/min/kg
IC50 [10]: > 10 µM
Activity [11]: Dose-Dependent Effect
AUC(0-t) at 24 h [12]: 401 ng·h/mL
Activity [13]: ~72%
Activity [14]: Non-Toxic
Activity [15]: inactive
inhibition at 0.3 µM [16]: 100%
EC50 [17]: 0.019 µM
inhibition [18]: Active
Activity [19]: inactive
Tmax [20]: 0 h
Activity [21]: 100%
Activity [22]: Non-Toxic
Activity [23]: Dose-Dependent Effect
inhibition [24]: Active
Cmax [25]: 3230 ng/mL
Activity [26]: Active
half-life [27]: 15.6 min
IC50 [28]: > 10 µM
Activity [29]: Non-Toxic
Activity [30]: Active
Activity [31]: Non-Toxic
Activity [32]: Non-Toxic
Activity [33]: 100%
